The structures appear in SMILES notation.

The nature of this data set: gradient 5% acetonitrile 3 min, to 50% in 2 min, to 85% in 15 min, held 3 min, 100 µL/min. The settings on record: column: Zorbax Extend-C18 2.1 x 50 mm; eluents: water / acetonitrile, 0.1% formic acid. In short, it runs like this: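 Retention times of pure standards were taken from adduct peaks that were selected by computer and manually inspected. Over 3 months, mixtures of ~100 molecules were run by HPLC–quadrupole time-of-flight mass spectrometry in positive and negative ionization mode. The Zorbax Extend-C18 column (2.1 × 50 mm, 1.8 μm) ran at 100 μL/min in water and acetonitrile, each containing 0.1% formic acid, with 40 μL dead volume and 900 μL dwell volume.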
`CC(C)CNC(=O)N1CCC(CCOc2cccnc2)CC1` had an RP-LC retention time of 605 s.
With `Cc1ccc2oc(-c3nnc(C(=O)NCCCN4CCN(C)CC4)o3)c(C)c2c1` the figure was 622 s; with `Cc1ccc(Cl)cc1S(=O)(=O)NCC(O)Cc1ccccc1` (stereo unspecified), 858 s; with `CCOc1ccc(NC(=O)c2cnc(-c3ccc(F)cc3)nc2-c2ccncc2)cc1`, 935 s.
The compound `O=C(Cc1cccc(F)c1)Nc1nnc(SCc2nnc(-c3ccccc3)o2)s1` came in with an RP-LC retention time of 873 s.
As to `CCn1cc(SCC(=O)NCc2ccc3c(c2)OCO3)c2ccccc21`, the RP-LC retention time came to 854 s.
`CCc1cccc(NC(=O)C2CCN(S(=O)(=O)c3cc(C(=O)N4CCCC4)cs3)CC2)c1` returned an RP-LC retention time of 892 s.
With `Cc1cc(C(=O)NC2CCCC2)nn1C` the figure was 680 s; with `CC(C)Oc1ccc(C(=O)Nc2nc(-c3cccnc3)cs2)cc1`, 660 s.
With `Cc1ccc(NC(=O)Cn2nc(N3CCCC(C)C3)c3ccccc3c2=O)cc1` (stereo unspecified) the figure was 1140 s; with `CC(=O)c1ccc(S(=O)(=O)NCCC2CCN(C(=O)c3ccccc3)CC2)cc1`, 773 s.
As for `CCCCc1ccc(Nc2ncccc2S(N)(=O)=O)cc1`, the figure is 1060 s; as for `CCC(=O)n1nc(-c2ccccc2Cl)nc1N`, 837 s; as for `COc1cccc(N2CCN(c3nnc(-c4nnc(C)o4)c4ccccc34)CC2)c1`, 922 s.
For the compound `COc1ccc(N2CCN(c3cc(SCC(=O)Nc4cc(OC)ccc4OC)ncn3)CC2)cc1`, the RP-LC retention time worked out at 1030 s.
For the compound `COc1ccccc1-c1noc(Cn2c(=O)n(C(C)C)c(=O)c3ccccc32)n1`, the RP-LC retention time is 994 s.
Compound `O=[N+]([O-])c1ccc(-c2csc(N3CCOCC3)n2)cc1` showed an RP-LC retention time of 1000 s.
With `CN1CCC(NC(=O)C2CCN(C(=O)c3ncn4c3COC(c3ccc(F)cc3)C4)CC2)CC1` (stereo unspecified) the figure was 599 s; with `CCn1nc(-c2csc(S(=O)(=O)N3CCCCC3C)c2)ccc1=O` (stereo unspecified), 896 s.
As for `Cc1noc(C)c1S(=O)(=O)NCCOc1cc(N2CCOCC2)ncn1`, the figure is 643 s; as for `Cc1nccn1CC(=O)N1CCCn2cc(-c3cccc(C#N)c3)nc21`, 626 s.
As for `CC(C)n1cnc(S(=O)(=O)N2CCCC(C(=O)N3CCN(c4ccccc4)CC3)C2)c1` (stereo unspecified), the figure is 766 s; as for `CCCS(=O)(=O)N1CCC2(CC1)CN(Cc1ccc(OC)cc1)C2=O`, 787 s.
In turn, `Cc1ccc(NC(=O)C2CCN(S(=O)(=O)c3cn(C)cn3)CC2)cc1C` displayed an RP-LC retention time of 734 s.
On to `O=C(Nc1ncc(-c2ccccc2)s1)c1ccc(S(=O)(=O)N2CCCCC2)cc1`, for which the RP-LC retention time is 1040 s.
Consider `CC(C)Cn1c(=O)c(N2CCN(C(=O)C(C)C)CC2)nc2ccccc21`, for which the RP-LC retention time was 1020 s.
As for `COc1cccc2sc(N(C)CC(=O)Nc3ccc(-n4cnnn4)cc3)nc12`, the figure is 729 s; as for `CC(O)CNC(=O)C1CCCN(c2ccc(Sc3ccc(Br)cc3)nn2)C1` (stereo unspecified), 688 s.
As for `CCOC(=O)c1ccc(N2C=C(C(=O)N3CCCC3)S(=O)(=O)c3ccc(Cl)cc32)cc1`, the figure is 950 s; as for `CNC(=O)c1cncc(OC(C)C)c1`, 610 s.
With `COc1ccc(-c2cc(N3CCN(C(=O)Nc4ccc(OC)cc4OC)CC3)ncn2)cc1` the figure was 663 s; with `Cc1cc(S(=O)(=O)N2CC=C(c3cn(C)c4ncccc34)CC2)ccc1F`, 1050 s; with `Cc1ccc(C)c(CNC(=O)C2CCN(c3cncnc3N3CCOCC3)CC2)c1`, 654 s.
In turn, `CC(C)OCCCNC(=O)c1ccc2c(c1)nc1n2CCCCC1` returned an RP-LC retention time of 606 s.
In turn, `CCc1nnc2ccc(NC(C)C)nn12` showed an RP-LC retention time of 718 s.
As for `O=C(NCc1ccccc1)C1Oc2ccccc2NC1=O` (stereo unspecified), the figure is 701 s; as for `CCc1cc(C(=O)Nc2ccc(F)cc2)nc2ccnn12`, 997 s; as for `O=C(Nc1cccc(F)c1)C1CC(=O)N(CCc2c[nH]c3ccc(Cl)cc23)C1` (stereo unspecified), 844 s.
For the compound `Cc1ccc(Cl)cc1NC(=O)CSc1ccc(N2CCOCC2)nn1`, the RP-LC retention time came to 766 s.
With `COc1cc(NC(=O)C2CCN(S(=O)(=O)c3cn(C(C)C)cn3)CC2)cc(OC)c1` the figure was 751 s; with `COc1ccc(S(=O)(=O)C(CNC(=O)c2ccc3c(c2)OCO3)c2cccs2)cc1` (stereo unspecified), 787 s; with `COc1ccc(CC(=O)NC2CCN(c3nnc4ccccn34)CC2)cc1`, 626 s.
`Cc1ccc(Nc2c(-c3ccc(Cl)cc3)nc3nc(C)cc(C)n23)cc1` returned an RP-LC retention time of 827 s.
Take `CCOC(=O)c1c(C)oc2ncnc(N3CCC(c4ccccc4)C3)c12` (stereo unspecified): the RP-LC retention time came out at 1100 s.
As for `Cc1ccc(-c2nnc(N3CCC(C(=O)NCCN4CCOCC4)CC3)o2)cc1`, the figure is 614 s.
As for `COc1ccc(Cc2noc(Cc3nnc(-c4ccc(Cl)cc4)o3)n2)cc1`, the figure is 1010 s; as for `O=C(O)c1cc(-c2ccc3c(c2)OCO3)nc2cc3c(cc12)OCCO3`, 690 s.
With `Cc1cc(N2CCCC2)nc(N2CCN(C(=O)C3CCCC3)CC2)n1` the figure was 670 s.
For the compound `O=C(Cc1nc(-c2ccccn2)n[nH]1)Nc1ccc(F)c(F)c1`, the RP-LC retention time was determined as 651 s.
In the case of `Cn1nnnc1SCCNCc1ccc(Cl)cc1Cl`, the RP-LC retention time was 596 s.
As for `COc1ccc(CNc2ncc(C(=O)O)c(C(C)C)n2)cc1OC`, the figure is 863 s; as for `CCOC(=O)c1ccc(NC(=O)Cn2c(=O)cc(-c3nc(C)no3)c3ccccc32)cc1`, 903 s; as for `CC(=O)N(C1CC1)C1CCOC2(CCN(C(=O)Cc3c(C)noc3C)CC2)C1` (stereo unspecified), 659 s.
With `CN1C(=O)CCCCC1C(=O)N1CCc2ccccc21` (stereo unspecified) the figure was 721 s.
As for `CN(C)S(=O)(=O)c1ccc(-c2nnc(C(=O)N3CCCCC3)o2)cc1`, the figure is 824 s; as for `Cc1cccc(NS(=O)(=O)c2cc3n(c2)CCN(C(C)C)C3=O)c1C`, 816 s.
`O=C(Cc1ccccc1)NCCc1nc2ccccc2[nH]1` showed an RP-LC retention time of 545 s.
As for `CCCN1C(=O)c2cc(S(=O)(=O)Nc3ccccc3Cl)ccc2Oc2cccnc21`, the figure is 1090 s; as for `Cc1cccc(S(=O)(=O)Nc2ccc(C3(C(=O)NCC4CCCO4)CC3)cc2)c1` (stereo unspecified), 828 s.
With `Cc1nc(-c2csc(S(=O)(=O)N3CCCC(C(=O)Nc4ccc(F)cc4F)C3)c2)no1` (stereo unspecified) the figure was 952 s.
With `Cc1cccc(-n2c(=O)c3c(cc(C)n3C)n(CC(=O)N(C)c3ccccc3)c2=O)c1` the figure was 864 s; with `CN(C)Cc1cc(C(F)(F)F)ccc1C(O)(c1ccccc1)c1ccccc1`, 883 s; with `COc1cccc(-n2c(=O)c3sccc3n(Cc3nc(-c4ccccc4)no3)c2=O)c1`, 956 s.
The compound `COc1ccc(OC)c(CNC(=O)c2c(O)c3cccnc3[nH]c2=O)c1` showed an RP-LC retention time of 921 s.
In the case of `CCOC(=O)c1ccc(Nc2c(-c3cccc(Cl)c3)nc3cnccn23)cc1`, the RP-LC retention time amounted to 978 s.
With `COc1cc(F)ccc1-c1ccnc2nc(C(C)C)nn12` the figure was 842 s.
With `Cc1ccc(N(C)C(=O)Cn2ccc3c(=O)n(C)c(=O)n(C)c32)cc1C` the figure was 693 s; with `CN(C)CCn1nnc2cc(-c3noc(Cc4ccc(F)cc4)n3)ccc21`, 714 s; with `O=C(c1ccc(F)cc1)N1CCC(n2c(-c3ccoc3)nc3cccnc32)C1` (stereo unspecified), 712 s.
With `CC(C)N1CCN(Cc2ccc(C(=O)NCc3cccc(C(F)(F)F)c3)cc2)C(=O)C1=O`, the RP-LC retention time came out at 766 s.
As for `COCc1nc2cccnc2n1C1CCN(C(=O)Nc2cc(OC)c(OC)c(OC)c2)CC1`, the figure is 659 s; as for `CN1CCc2ccccc2Cc2[nH]c3ccccc3c2CC1`, 738 s; as for `O=C(NCc1ccco1)C1CCN(c2nc3ccc(-c4cccnc4)nc3s2)CC1`, 644 s.
As for `CCN1C(=O)c2c(C(=O)Nc3ccc(C)cc3)ncn2CC1(C)C(=O)NC1CCCC1` (stereo unspecified), the figure is 822 s.
With `O=C(/C=C\c1ccccc1)Nc1ccc(-c2cn3cccnc3n2)cc1` the figure was 683 s.
Turning to `CCCC(=O)Nc1ccc(S(=O)(=O)NCC(C)(O)COC)cc1` (stereo unspecified), the RP-LC retention time came out at 619 s.
The compound `Cc1cccc(C)c1NC(=O)CN1CCCC1` came in with an RP-LC retention time of 633 s.
In turn, `CCOc1cc(-c2nc(C3CC(=O)N(c4ccc(Cl)cc4)C3)no2)cc(OCC)c1OCC` (stereo unspecified) showed an RP-LC retention time of 1240 s.
With `CN(C)CCCN1c2ccc3ccccc3c2Sc2cccc(Cl)c21` the figure was 792 s.
As for `Cc1ccc(CCNC(=O)C2CCCN(c3nnc(C)c4c(C)n(-c5ccc(C)cc5)nc34)C2)cc1` (stereo unspecified), the figure is 815 s; as for `Cc1cc(C)cc(NC(=O)C2CCN(S(=O)(=O)c3cc(C(=O)N4CCCC4)n(C)c3)CC2)c1`, 843 s.

These data come from the METLIN SMRT retention time set (Domingo-Almenara et al. 2019).
